Read-outs that look alike come from different tables or passages of the source.
Columns and labels:
[1] = tested on: mouse B cells (ICAM-1/LFA-1 interaction); assay: Homotypic B cell aggregation assay; assay type: cell-based; conditions: overnight 37°C, clumping index 1-10
Experimental: To obtain these cells, mice were sacrificed by cervical dislocation, the spleens were removed, and splenocytes were isolated and resuspended in RPMI 10% FBS at a final concentration of 10^6 cells/ml. Cells were treated with 10 µg/ml PHA and 1 µg/ml ionomycin to activate LFA-1 and incubated at 37°C 5% CO2 overnight in flat bottom 96-well plates (10^5 cells) in the presence of peptides from LFA-1 and c-Myc (control) 250 µM, D1D2, D1D2Fc, and human IgG1 10 µg, EGTA 1 mM and lovastatin 100 µM. A qualitative aggregation assay was carried out as described ([36], [41]) with a slight modification. Briefly, positive control stimulated cell samples were arbitrarily assigned a clumping index of 10 and lovastatin samples an index of 1. Test samples were ranked from 1 to 10 based upon degree of clumping relative to stimulated and lovastatin-treated samples. Results were verified by a blind independent rating performed by a second observer.
Fresh mouse B cells were obtained from splenocytes and stimulated with PHA and ionomycin to induce homotypic adhesion. The results were quantified by establishing a clumping index that represents the degree of cell aggregation, which reflects the inhibition efficiency (Figure 3B). Cell aggregation was ranked by a clumping index from 1 to 10 based on the degree of aggregation in comparison with the stimulated cells (positive control, clumping index = 10).
Figure 3 Effect of human (ICAM-1) on the aggregation of mouse spleen cells. (A) Splenocytes isolated from mice were non treated (a) or activated with PHA (b–i) as described in Section “Experimental Procedures” and further incubated overnight with (b) medium; (c) IgG1; (d) c-Myc peptide; (e) EGTA; (f) lovastatin; (g) D1D2; (h) D1D2Fc; (i) mouse LFA-1 peptide CD11a235–259. Images were taken with an optical microscope (original magnification, 10×). Representative images from two independent experiments with similar results are shown. (B) The graph represents the rate of agglutination depending on the inhibitory effect on ICAM-1/LFA-1 interaction. Cells stimulated with PHA and ionomycin, which served as a positive control, were arbitrarily assigned agglutination index 10, which represents a percentage of aggregation between 90 and 100%. Homotypic aggregation was classified from 1 to 10 depending on the degree of aggregation relative to cells stimulated. The result was verified by a second independent observer. Values are presented as mean ± SEM of two separate experiments performed by duplicate. Statistical analysis was performed using two-way analysis of variance with Bonferroni’s posttest comparing with c-Myc peptide control. *p < 0.05; ***p < 0.001.

Mac-1 = conditions: ref [42], [43]; cited from earlier work
Source text: (§1) In contrast, cell aggregates were clearly visible in cultures after stimulation (Figure 3A, b). […] Macrophage phenotype was confirmed by testing surface antigens by flow cytometry. Monocyte-derived macrophages expressed higher levels of HLA-DR and CD14 than undifferentiated monocytes ([51]). In addition, expression of CD54 (ICAM-1) was diminished in comparison with freshly isolated monocytes (Figure 6B). […] As shown ...

VLA-4 = conditions: ref [42], [43]; cited from earlier work
Source text: as §1

ICAM-1/LFA-1 interaction = conditions: cited from earlier work
Experimental: Human and mouse LFA-1-derived peptides (human: CD11a237–261; mouse: CD11a235–259) were purchased from GenScript (Piscataway, USA) without any modification. […] Besides, incubation cells with a mouse antiCD1 ...

[2] = tested on: K562 cells killed by human NK cells (ICAM-1/LFA-1); assay: NK cell-mediated cytotoxicity on K562; assay type: cell-based; conditions: peptide 250 µM, preincubation 45 min 37°C; effector:target 3:1, 4 h; annexin-V/7-AAD by FACS; vs c-Myc control; two experiments by duplicate
Experimental: The effect of human and mouse peptides derived from LFA-1 on ICAM-1/LFA-1 dependent cell–cell contact was analyzed by performing a cell cytotoxicity assay using human primary NK cells and the NK cell sensitive human leukemia K562. Primary activated human NK cells were generated by culturing PBMCs with mitomycin C inactivated R69 cells for 5 days and enriched by MACS using anti-CD56 antibodies as previously described ([39]). Cell cytotoxicity induced by NK cells on K562 was analyzed by flow cytometry as previously described ([39]). Briefly, K562 cells were preincubated with medium alone, in the presence of 250 µM of human and mouse peptides from LFA-1 or D1D2 (15 µg) for 45 min at 37°C. Then, NK cells were added at 3:1 effector:target cell ratio and incubated for 4 h at 37°C, 5% CO2. Subsequently, phosphatidylserine exposure and 7-AAD uptake were analyzed by FACS using the annexin-V/7-AAD kit from Immunostep. As a control, the cells were incubated alone with the inhibitors to evaluate their possible toxicity, which was not significant in any case.
Figure 4 Inhibition of natural killer (NK) cell-mediated cytotoxicity by human intercellular adhesion molecule-1. […] Cell death was analyzed by measuring translocation of PS by flow cytometry in the negative population for CFSE as described in experimental procedures. […]

D1D2Fc = target: T1, D1D2Fc (Homo sapiens, UniProt P05362); conditions: peptide derived from human LFA-1, observed previously, ref [34], cited from earlier work
T1 construct: The synthetic first two domains of ICAM-1 alone (D1D2) or linked with human IgG1 Fc region (D1D2Fc) were expressed in Escherichia coli; made in house; host or cells: Escherichia coli
Source text: In a previous work, we have shown that purified human recombinant ICAM-1 was able to interact with peptides derived from human LFA-1 ([34]). […] The complex formation was net exothermic as would be expected for a reaction in which specific intermolecular interactions are established. Besides, if there were no interaction, there would not be any signal. This value was obtained by fitting to the binding isotherm a 1:n interaction model, which assumes a single type of binding sites.

[3] = target: human ICAM-1 first two domains linked with human IgG1 Fc region (D1D2Fc) (human); assay: ITC; 150 µM peptide injected (28 injections of 10 µl) into 12 µM D1D2Fc in the cell, PBS, 25°C, VP-ITC; fitted with a 1:n interaction model with a single type of binding sites
[4] = tested on: gp33-pulsed EL4 cells killed by mouse Tc cells (ICAM-1/LFA-1); assay: CD8+ T cell-mediated cytotoxicity on EL4; assay type: cell-based; conditions: ICAM-1 proteins, several (increasing) amounts, preincubation 45 min 37°C; effector:target 10:1, 4 h; annexin-V/7-AAD by FACS; three experiments by duplicate
human macrophages = assay: Human macrophage adhesion to plastic (MTT); assay type: cell-based; conditions: human D1D2 and D1D2Fc, different concentrations, 37°C overnight, three experiments by duplicate
Experimental: (§2) Monocytes were isolated from human peripheral blood mononuclear cells (PBMCs), obtained from healthy donors (Blood and Tissue Bank of Aragon; approved by the CEICA, number: C.I.PI11/006) by density gradient centrifugation using Ficoll-Paque (GE healthcare). PBMCs were resuspended at a concentration of 2.5 × 10^6 cells/ml in RPMI medium supplemented with 1% heat-inactivated human AB serum (Sigma). Cells were cultured in a Petri dish for 2 h at 37°C 5% CO2. […]
(§3) Freshly isolated monocytes or differentiated macrophages were washed twice with PBS and incubated with trypsin (PAN Biotech) for 30 min at 37°C 5% CO2. […] Next day, every well was washed twice with PBS, complete RPMI medium was added and the number or adherent remaining cells was quantified by a MTT colorimetric test ([38]). […]
(§4) Figure 6 LFA-1 is involved in human macrophage adhesion. […] (B) Macrophage phenotype was analyzed by flow cytometry testing the expression of HL-DR, CD14, CD54, and CD11a. […] Subsequently, every well was washed twice with PBS to remove non-adherent cells and quantification of cell adhesion was carried out by MTT as described in Section “Experimental Procedures.” Values are presented as mean ± SEM of three independent experiments performed by duplicate. […]

human monocytes = assay: Human monocyte adhesion to plastic (MTT); assay type: cell-based; conditions: human D1D2 and D1D2Fc, different concentrations, 37°C overnight, three experiments by duplicate
Experimental: as §2, §3, §4

T1 sequence (P05362 with tags, fused parts or gaps limits assumed): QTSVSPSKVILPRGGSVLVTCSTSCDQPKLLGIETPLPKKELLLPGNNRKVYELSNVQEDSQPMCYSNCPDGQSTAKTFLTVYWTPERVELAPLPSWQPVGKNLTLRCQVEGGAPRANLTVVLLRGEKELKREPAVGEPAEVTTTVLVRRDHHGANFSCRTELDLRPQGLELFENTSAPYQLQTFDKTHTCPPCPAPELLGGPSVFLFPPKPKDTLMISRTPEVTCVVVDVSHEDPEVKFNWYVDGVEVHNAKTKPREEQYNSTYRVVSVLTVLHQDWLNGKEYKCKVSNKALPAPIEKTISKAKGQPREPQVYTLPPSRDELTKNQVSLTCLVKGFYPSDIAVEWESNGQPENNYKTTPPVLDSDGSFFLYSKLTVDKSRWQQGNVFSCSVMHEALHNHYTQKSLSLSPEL

O=C(O)CN(CCOCCOCCN(CC(=O)O)CC(=O)O)CC(=O)O [EGTA, reference compound]
inhibition of B cell aggregation ([1]; EGTA 1 mM, splenocytes activated with PHA and ionomycin): inhibit completely the aggregation
effect on Mac-1 (Mac-1): without affecting
effect on VLA-4 (VLA-4): without affecting
specific block of ICAM-1/LFA-1 interaction (ICAM-1/LFA-1 interaction; ref [42], [43]): specifically block ICAM-1/LFA-1 interaction

ITDGEATDSGNIDAAKDIIRYIIGI [CD11a237–261, human LFA-1-derived peptide, purchased from GenScript without any modification]
inhibition of NK cell-mediated cell death of K562 [2]: blocked NK cell-mediated cell death
affinity for human ICAM-1 (D1D2Fc), in words (D1D2Fc): similar
affinity for human ICAM-1 (D1D2Fc), in words (D1D2Fc; listed as peptide of human LFA-1): highest affinity
ability to block ICAM-1/LFA-1 interaction (ICAM-1/LFA-1 interaction; ref [36]): ability to block ICAM-1/LFA-1 interaction

B1: mouse LFA-1-derived peptide CD11a(235-259) (peptide)
peptide: ITDGEASDKGNISAAHDITRYIIGI
Kd [3]: 70 nM

B2: Human ICAM-1: human ICAM-1 (D1D2Fc and D1D2) in this paper's tests; purified human ICAM-1 in ref [29] (protein, UniProt P05362 28-532, looked up)
Intercellular adhesion …: QTSVSPSKVILPRGGSVLVTCSTSCDQPKLLGIETPLPKKELLLPGNNRKVYELSNVQEDSQPMCYSNCPDGQSTAKTFLTVYWTPERVELAPLPSWQPVGKNLTLRCQVEGGAPRANLTVVLLRGEKELKREPAVGEPAEVTTTVLVRRDHHGANFSCRTELDLRPQGLELFENTSAPYQLQTFVLPATPPQLVSPRVLEVDTQGTVVCSLDGLFPVSEAQVHLALGDQRLNPTVTYGNDSFSAKASVSVTAEDEGTQRLTCAVILGNQSQETLQTVTIYSFPAPNVILTKPEVSEGTEVTVKCEAHPRAKVTLNGVPAQPLGPRAQLLLKATPEDNGRSFSCSATLEVAGQLIHKNQTRELRVLYGPRLDERDCPGNWTWPENSQQTPMCQAWGNPLPELKCLKDGTFPLPIGESVTVTRDLEGTYLCRARSTQGEVTRKVTVNVLSPRYEIVIITVVAAAVIMGTAGLSTYLYNRQRKIKKYRLQQAQKGTPMKPNTQATPP
inhibition of Tc cell-mediated cell death of EL4 [4]: completely blocked cell death
inhibition of B cell aggregation ([1]; protein 10 µg, splenocytes activated with PHA 10 µg/ml and ionomycin 1 µg/ml, two experiments by duplicate): significantly inhibited adhesion
inhibition of adhesion of human macrophages (human macrophages): completely inhibited
inhibition of adhesion of human monocytes (human monocytes): completely inhibited
